Reference: patent US7112585B2, “Pyrimidine derivatives as corticotropin releasing factor inhibitors” (Bristol-Myers Squibb Company, priority 2003, dated 2006)

Legend:
[1] = molecular target: T1, cloned human CRF-R1 receptors (Homo sapiens, UniProt P34998); assay: CRF-R1 Receptor Binding Assay (inhibition of 125I-ovine-CRF binding to cell membranes); parameters: key to activity: a: Ki≦100 nM; b: 100 nM<Ki≦500 nM; c: 500 nM<Ki≦5,000 nM; activity reported in percent inhibition at 10 μM; conditions: CRF assays; class d = activity only as percent inhibition at 10 μM (value not given)
T1 construct: the coding region was amplifies by PCR from start to stop codons; expressed in transfected cells; host or cells: 293EBNA (HEK 293 EBNA-1) cells, episomal vector phchCRFR, hygromycin-selected pool; membranes
T1 sequence (P34998 24-415): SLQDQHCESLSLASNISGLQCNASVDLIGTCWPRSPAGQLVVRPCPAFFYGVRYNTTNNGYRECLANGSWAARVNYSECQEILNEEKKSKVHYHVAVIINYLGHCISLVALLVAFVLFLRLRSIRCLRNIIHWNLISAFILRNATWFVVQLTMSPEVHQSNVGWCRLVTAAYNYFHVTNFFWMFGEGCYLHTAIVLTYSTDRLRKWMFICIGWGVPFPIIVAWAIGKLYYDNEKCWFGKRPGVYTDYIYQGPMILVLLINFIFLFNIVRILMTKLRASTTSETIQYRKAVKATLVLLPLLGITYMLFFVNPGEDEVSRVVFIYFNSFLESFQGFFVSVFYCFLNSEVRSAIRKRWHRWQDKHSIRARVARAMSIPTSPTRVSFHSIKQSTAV
Excerpt: CRF-R1 Receptor Binding Assay for the Evaluation of Biological Activity
The following is a description of the isolation of cell membranes containing cloned human CRF-R1 receptors for use in a standard binding assay as well as a description of the assay itself.
Messenger RNA was isolated from human hippocampus. The mRNA was isolated from human hippocampus. The mRNA was reverse transcribed using oligo (dt) 12–18 and the coding region was amplifies by PCR from start to stop codons. The resulting PCR fragment was cloned into the EcORV site of pGEMV, from whence the insert was reclaimed using XhoI+XbaI and cloned into the XhoI+XbaI sites of vector pm3as (which contains a CMV promoter, the SV′t′ splice and early poly A signals, an Eptein-Barr viral origin of replication, and a hygromycin selectable marker). The resulting expression vector, called phchCRFR was transfected in 293EBNA cells and cells retaining the episome were selected in the presence of […] hygromycin. Cells surviving 4 weeks of selection in hygromycin were pooled, adapted to growth in suspension and used to generate membranes for the binding assay described below. Individual aliquots containing approximately 1×10^8 of the suspended cells were then centrifuged to form a pellet and frozen. For the binding assay a frozen pellet described above containing 293EBNA cells transfected with hCRFR1 receptors is homogenized in 10 mL of ice cold tissue buffer (50 mM HEPES buffer pH 7.0, containing 10 MM MgCl2, 2 mM EGTA, 1 μg/mL apotinin, 1 μg/mL leupeptin and 1 μg/mL pepstatin). The homoginate is centrifuged at 40,000×g for 12 min and the resulting pellet rehomogenized in 10 mL of tissue buffer. After another centrifugation at 40,000×g for 12 min, the pellet is resuspended to a protein concentration of 360 μg/mL to be used in the assay.
Binding assays are performed in 96 well plates; each well having a 300 μL capacity. To each well is added 50 μL of test drug dilutions (final concentration of drugs range from 10^−10–10^−5 M), 100 μL of ^125I-ovine-CRF (^125I-o-CRF) (final concentration 150 pM) and 150 μL of the cell homoginate described above. Plates are then allowed to incubate at room temperature for 2 hours before filtering the incubate over GF/F filters (presoaked with 0.3% polyethyleneimine) using an appropriate cell harvester. Filters are rinsed 2 times with ice cold assay buffer before removing individual filters and assessing them for radioactivity on a gamma counter.
Curves of the inhibition of ^125I-o-CRF binding to cell membranes at various dilutions of test drug are analyzed by the iterative curve fitting program LIGAND [P. J. Munson and D. Rodbard, Anal. Biochem., 107:220 (1980), which provides Ki values for inhibition which are then used to assess biological activity. […]
Messenger RNA was isolated from human hippocampus. The mRNA was isolated from human hippocampus. The mRNA was reverse transcribed using oligo (dt) 12–18 and the coding region was amplifies by PCR from start to stop codons. The resulting PCR fragment was cloned into the EcORV site of pGEMV, from whence the insert was reclaimed using XhoI+XbaI and cloned into the XhoI+XbaI sites of vector pm3as (which contains a CMV promoter, the SV′t′ splice and early poly A signals, an Eptein-Barr viral origin of replication, and a hygromycin selectable marker). The resulting expression vector, called phchCRFR was transfected in 293EBNA cells and cells retaining the episome were selected in the presence of […] hygromycin. Cells surviving 4 weeks of selection in hygromycin were pooled, adapted to growth in suspension and used to generate membranes for the binding assay described below. […]
A frozen pellet described above containing 293EBNA cells transfected with hCRFR1 receptors or the rat frontal cortex tissue dissected from frozen rat brains was prepared as the source of membranes expressing CRF1 receptors used in binding assays. […]

Row | activity [1] | melting point | Ki [1] | SMILES
1 | d | 210 to 212 °C |  | Cc1cc(C)c(Nc2nc(C)ncc2S(=O)(=O)c2ccc(-c3cncnc3)cc2)c(C)c1 [Example 24, [2-Methyl-5-(4-pyrimidin-5-yl-benzenesulfonyl)-pyrimidin-4-yl]-(2,4,6-trimethylphenyl)-amine]
2 |  | 215 to 217 °C | ≤ 100 nM | Cc1cc(C)c(Nc2nc(C)ncc2S(=O)(=O)c2ccc(-c3ncccn3)cc2)c(C)c1 [Example 25, [2-Methyl-5-(4-pyrimidin-2-yl-benzenesulfonyl)-pyrimidin-4-yl]-(2,4,6-trimethylphenyl)-amine]
3 |  | 232 to 234 °C | 500 to 5000 nM | Cc1cc(C)c(Nc2nc(C)ncc2S(=O)(=O)c2ccc(-c3ccncc3)cc2)c(C)c1 [Example 26, [2-Methyl-5-(4-pyridin-4-yl-benzenesulfonyl)-pyrimidin-4-yl]-(2,4,6-trimethylphenyl)-amine]
4 |  | 201 to 203 °C | ≤ 100 nM | Cc1cc(C)c(Nc2nc(C)ncc2S(=O)(=O)c2ccc(-c3ccccn3)cc2)c(C)c1 [Example 27, [2-Methyl-5-(4-pyridin-2-yl-benzenesulfonyl)-pyrimidin-4-yl]-(2,4,6-trimethylphenyl)-amine]
5 |  | 190 to 192 °C | 500 to 5000 nM | Cc1cc(C)c(Nc2nc(C)ncc2S(=O)(=O)c2ccc(-c3cccnc3)cc2)c(C)c1 [Example 28, [2-Methyl-5-(4-pyridin-3-yl-benzenesulfonyl)-pyrimidin-4-yl]-(2,4,6-trimethylphenyl)-amine]
6 | d | 240 to 242 °C |  | Cc1cc(C)c(Nc2nc(C)ncc2S(=O)(=O)c2ccc(C3=NCCN3)cc2)c(C)c1 [Example 29, {5-[4-(4,5-Dihydro-1H-imidazol-2-yl)-benzenesulfonyl]-2-methyl-pyrimidin-4-yl}-(2,4,6-trimethylphenyl)-amine]
7 | d | 282 to 284 °C |  | Cc1cc(C)c(Nc2nc(C)ncc2S(=O)(=O)c2ccc(-c3ncc[nH]3)cc2)c(C)c1 [Example 30, {5-[4-(1H-Imidazol-2-yl)-benzenesulfonyl]-2-methyl-pyrimidin-4-yl}-(2,4,6-trimethylphenyl)-amine]
